Data: PMC10987619, “Identification and structural characterization of small molecule inhibitors of PINK1” (Scientific Reports, 2024)

How the values were obtained:
[1] = target: T1, TcPINK1 (Tribolium castaneum, UniProt D6WMX4); experiment: In vitro ubiquitin kinase assay with tetraubiquitin (Ub4), pUb immunoblot; type: biochemical; conditions: 100 µM compound; for Inhibition of Ub4 phosphorylation (kinase activity of TcPINK1): 100 µM ATP, 5 min, 30 °C
T1 construct: GST (N, cleaved yes); made in house; host or cells: E. coli
T1 sequence (D6WMX4 121-570 limits assumed): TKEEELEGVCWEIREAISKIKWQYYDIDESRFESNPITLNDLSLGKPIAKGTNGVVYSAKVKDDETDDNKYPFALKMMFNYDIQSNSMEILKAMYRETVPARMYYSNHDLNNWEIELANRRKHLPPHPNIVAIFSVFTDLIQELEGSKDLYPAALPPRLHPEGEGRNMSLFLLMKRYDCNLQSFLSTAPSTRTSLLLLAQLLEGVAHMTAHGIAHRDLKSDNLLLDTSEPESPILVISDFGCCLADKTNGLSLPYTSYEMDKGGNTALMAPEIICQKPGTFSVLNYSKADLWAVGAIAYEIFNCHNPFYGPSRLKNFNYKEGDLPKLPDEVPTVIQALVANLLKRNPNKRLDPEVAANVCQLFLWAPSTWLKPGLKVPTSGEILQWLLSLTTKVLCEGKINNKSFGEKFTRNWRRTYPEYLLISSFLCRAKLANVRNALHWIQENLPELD
Method: Inhibitors were purchased from different sources via Cedarlane Laboratories (catalog # in parenthesis). […] Olaparib was sent by mistake by Adooq Bioscience under cat #P505-15 and identified by LC–MS/MS (MS^1: m/z 435.183; MS^2: m/z 367.157, 281.072). MTK458 was donated by Mitokinin. The racemic PRT-core was custom synthesised by ChemSpace (CSCS02808122161). Kinase activity assays were performed by mixing 5 nM of purified TcPINK1 with 100 µM ATP, 100 µM small molecules from 10 mM stock in DMSO, 200 µM MgCl2 in kinase buffer (final 1% DMSO). The reactions were left in a 30 °C incubator for 5 min for TcPINK1. The reactions were stopped with the addition of Laemmli buffer (2% SDS, 0.1% bromophenol blue (SigmaAldrich), 10% glycerol, 100 mM DTT) final concentration 1X. The entire reaction was loaded onto a 12.5% Tris-Tricine gel (1 M Tris–HCl pH 8.45, 12.5% acrylamide, 0.1% SDS, 0.1% APS, 0.04% TEMED). Protein from a 12.5% polyacrylamide gel were transferred onto an immuno-blot polyvinylidene fluoride (PVDF) membrane (Bio-rad). The membranes were stained with 1% Ponceau and imaged using the ImageQuant LAS 500. The membrane was washed with distilled water and then blocked in 5% BSA diluted in tris buffered saline with 0.1% Tween (TBS-T) for 1 h. The membrane was briefly rinsed and left to incubate with primary antibody anti-pS65-Ub (E2J6T; rabbit mAb, CST, 62802) at a 1:10,000 dilution in TBS-T for 2 h. The membrane was further rinsed three times for 10 min with TBS-T before incubating it with a 1:2000 dilution of secondary antibody, anti-rabbit horseradish peroxidase (HRP)-conjugated antibodies (CST, 7074), in TBS-T. The membrane was rinsed three times for 10 min in TBS followed by the addition of 1 mL ECL solution (BioRad) to the membrane and visualized on the ImageQuant LAS 500. Densitometry was performed using the Fiji software.

[2] = target: T2, TcPINK1 121-570 (TcPINK1-4arom) (Tribolium castaneum, UniProt D6WMX4, F401A/W131A/W142A/Y225A); experiment: Isothermal titration calorimetry; type: binding; conditions: AMP-PNP (syringe) into TcPINK1 (cell), 20 °C, one-site model
T2 construct: GST (N, cleaved yes); made in house; host or cells: E. coli BL21 DE3
T2 sequence (D6WMX4 121-570 W131A/W142A/Y225A/F401A): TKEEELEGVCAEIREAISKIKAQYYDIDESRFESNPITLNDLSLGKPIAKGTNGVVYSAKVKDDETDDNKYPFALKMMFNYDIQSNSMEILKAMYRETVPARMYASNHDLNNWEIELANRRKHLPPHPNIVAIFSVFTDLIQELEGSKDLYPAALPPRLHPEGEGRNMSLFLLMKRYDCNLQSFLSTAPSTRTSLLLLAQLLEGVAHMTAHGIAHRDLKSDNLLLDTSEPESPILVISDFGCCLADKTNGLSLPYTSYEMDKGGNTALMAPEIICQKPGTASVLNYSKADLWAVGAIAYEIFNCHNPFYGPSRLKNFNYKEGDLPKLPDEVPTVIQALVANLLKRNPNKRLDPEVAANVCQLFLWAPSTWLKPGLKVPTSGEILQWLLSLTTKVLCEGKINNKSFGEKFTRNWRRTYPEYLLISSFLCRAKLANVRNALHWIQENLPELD
Method: The isothermal titration calorimetry (ITC) assay was performed using the Microcal ITC 200-1 instrument. […] Experiment involved 29 injections of AMP-PNP at 1.5 mM into a sample cell containing 350 μL of 100 µM TcPINK1-4arom at 20 °C. Data was fitted to a one-site model and background was subtracted using the Origin v7 software.

[3] = target: T3, TcPINK1 (Tribolium castaneum, UniProt D6WMX4); experiment: Kinase Glo luminescence assay (ATP hydrolysis) IC50 determination; type: biochemical; conditions: 1 µM unphosphorylated TcPINK1, 10 µM ATP, 5 min, 30 °C
T3 construct: TcPINK1 (121–570) ampicillin-resistant plasmids were co-expressed in BL21 DE3 E. coli with lambda phosphatase; GST (N, cleaved yes); made in house; host or cells: E. coli BL21 DE3
Method: The Kinase Glo Max (cat #V6071) kit assay was used to measure the ATP consumed in the kinase assays. Unphosphorylated 1 µM TcPINK1 was incubated with 10 µM ATP for 5 min at 30 °C in kinase buffer ([…]). […] The kinase buffer consists of 50 mM Tris–HCl pH 7.5, 300 mM NaCl, 1 mM DTT. 100 µL of kinase at 1 µM was added to 100 µL kinase buffer with inhibitor and left in a 30 °C incubator. After the 5-min mark, 200 µL kinase glo was added to stop the reaction. 100 µL of the sample was then pipetted into 3 wells of an opaque white 96-well plate. The luminescence was measured using the Orion II Microplate Luminometer and obtained using the Simplicity 4.2 program. […] The ATP concentration remaining in the reaction was calculated from the linear equation of the ATP standard curve. This number was then divided by the amount of ATP initially present and multiplied by 100 to obtain the percent inhibition. The values were normalized according to the baseline (no inhibitor). The points plotted on a non-linear regression graph in GraphPad Prism 7. The IC50 value and standard deviation were determined in GraphPad.

[4] = target: T4, human PINK1 (HsPINK1) (Homo sapiens, UniProt Q9BXM7); experiment: In organello Ub4 kinase assay with mitochondria isolated from CCCP-treated HeLa cells; type: biochemical; conditions: 100 µM compound, 0.1 mM ATP, 15 min, 30 °C
T4 construct: host or cells: HeLa (mitochondria isolated after CCCP)
T4 sequence (Q9BXM7 78-581): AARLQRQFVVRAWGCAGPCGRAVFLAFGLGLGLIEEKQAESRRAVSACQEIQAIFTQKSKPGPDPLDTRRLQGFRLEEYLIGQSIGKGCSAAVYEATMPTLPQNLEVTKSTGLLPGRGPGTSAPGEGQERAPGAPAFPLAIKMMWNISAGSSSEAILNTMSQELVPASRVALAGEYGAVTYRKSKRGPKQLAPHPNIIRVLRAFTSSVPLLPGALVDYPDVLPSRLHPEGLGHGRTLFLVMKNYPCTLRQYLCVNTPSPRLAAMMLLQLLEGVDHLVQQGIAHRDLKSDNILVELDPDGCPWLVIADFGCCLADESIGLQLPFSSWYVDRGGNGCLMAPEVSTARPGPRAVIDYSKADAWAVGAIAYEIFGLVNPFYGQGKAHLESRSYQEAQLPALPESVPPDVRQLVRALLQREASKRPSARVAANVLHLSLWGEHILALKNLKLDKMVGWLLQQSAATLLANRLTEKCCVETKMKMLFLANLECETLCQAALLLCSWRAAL
Method: Wild type (WT) HeLa cells (ATCC #CCL-2) were cultured in DMEM medium supplemented with 10% fetal bovine serum (FBS) at 37 °C and 5% CO2 in a humidified atmosphere. Cells were then treated with 20 µM CCCP for 3 h to induce the accumulation of PINK1. Cells were then washed twice in ice-cold mitochondrial isolation buffer (MIB: 20 mM HEPES, 70 mM sucrose, 220 mM mannitol, pH 7.4, 1 mM EDTA, Complete protease inhibitors), resuspended in MIB and lysed using nitrogen cavitation for 5 min at 500 psi. Cell debris were removed by centrifugation at 500 g for 5 min, and mitochondria were pelleted by centrifugation at 20,000g for 20 min. 7.5 µg of mitochondria was incubated with 3.75 µg Ub4, 5 mM MgCl2, 0.1 mM ATP and 100 µM of each inhibitor for 15 min at 30 °C. The reaction was quenched with Laemlli buffer and loaded on a gel for immunoblotting as described above. The following antibodies were used: anti-pS65-Ub (E2J6T; rabbit mAb, CST, 62802), anti-PINK1 (D8G3; rabbit IgG mAb; CST, 6946), anti-cytochrome C (136F3, recombinant rabbit mAb, CST, 4280), and HRP-conjugated secondary anti-rabbit (CST, 7074).

[5] = target: T5, endogenous PINK1 in dopaminergic (DA) neurons (Homo sapiens, UniProt Q9BXM7); experiment: Assay with dopaminergic neurons (CCCP, immunoblot); type: cell-based; conditions: 48 h compound then 20 µM CCCP 2 h
T5 construct: host or cells: ReN VM cells differentiated to dopamine neurons
T5 sequence (Q9BXM7 78-581): as above

[6] = test system: FGR; conditions: cited from earlier work
[7] = target: T6, GST-TcPINK1 (Tribolium castaneum, UniProt D6WMX4); experiment: In vitro ubiquitin kinase assay with monoubiquitin, Phos-tag gel; type: biochemical; conditions: 5 µM GST-TcPINK1, 30 µM ubiquitin, 1 mM ATP, 37 °C
T6 construct: made in house; host or cells: E. coli
T6 sequence (D6WMX4 with tags, fused parts or gaps limits assumed): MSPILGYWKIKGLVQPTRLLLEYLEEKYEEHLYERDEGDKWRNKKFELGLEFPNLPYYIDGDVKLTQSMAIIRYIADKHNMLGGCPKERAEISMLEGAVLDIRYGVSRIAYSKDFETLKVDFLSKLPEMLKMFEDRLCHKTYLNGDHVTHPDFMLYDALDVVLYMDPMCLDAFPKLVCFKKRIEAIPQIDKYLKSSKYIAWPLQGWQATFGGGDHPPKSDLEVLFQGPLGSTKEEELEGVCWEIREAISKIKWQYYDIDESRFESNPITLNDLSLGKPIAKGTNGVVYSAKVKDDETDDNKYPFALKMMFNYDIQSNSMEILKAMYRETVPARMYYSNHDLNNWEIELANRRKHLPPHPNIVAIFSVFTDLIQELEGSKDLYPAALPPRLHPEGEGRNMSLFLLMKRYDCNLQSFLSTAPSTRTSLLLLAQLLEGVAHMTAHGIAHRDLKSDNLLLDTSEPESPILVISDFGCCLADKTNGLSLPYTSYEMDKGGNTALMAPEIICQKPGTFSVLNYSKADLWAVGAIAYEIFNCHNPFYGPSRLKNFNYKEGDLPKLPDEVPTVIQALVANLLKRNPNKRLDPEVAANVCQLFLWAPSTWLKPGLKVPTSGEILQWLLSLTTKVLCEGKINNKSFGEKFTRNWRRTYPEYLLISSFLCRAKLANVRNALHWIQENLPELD
Method: (a) Thermal shift assay screen of kinase inhibitors against Tribolium castaneum PINK1 (TcPINK1) with melting temperature increase of 1.5 °C and above. Error bars indicate standard error of ΔTm estimation from melting curves (n = 1). (b) In vitro ubiquitin kinase assays with TcPINK1 and tetraubiquitin (Ub4). Reactions were analyzed by immunoblotting against phospho-ubiquitin (pUb). […] The ponceau staining of the above gel is shown as loading control. (c) In vitro ubiquitin kinase assays with 5 μM GST-TcPINK1 and 30 μM ubiquitin, as well as 1 mM ATP at 37 °C (n = 1). Reactions were analyzed using a phos-tag gel and stained by Coomassie blue. (d) Chemical structures of identified PINK1 inhibitors.

[8] = target: T7, TcPINK1 (Tribolium castaneum, UniProt D6WMX4); experiment: Autophosphorylation (transphosphorylation) assay by intact LC-MS; type: biochemical; conditions: 100 µM compound, 5 µM TcPINK1, 1 mM ATP, 30 °C
T7 sequence (D6WMX4 128-570 limits assumed): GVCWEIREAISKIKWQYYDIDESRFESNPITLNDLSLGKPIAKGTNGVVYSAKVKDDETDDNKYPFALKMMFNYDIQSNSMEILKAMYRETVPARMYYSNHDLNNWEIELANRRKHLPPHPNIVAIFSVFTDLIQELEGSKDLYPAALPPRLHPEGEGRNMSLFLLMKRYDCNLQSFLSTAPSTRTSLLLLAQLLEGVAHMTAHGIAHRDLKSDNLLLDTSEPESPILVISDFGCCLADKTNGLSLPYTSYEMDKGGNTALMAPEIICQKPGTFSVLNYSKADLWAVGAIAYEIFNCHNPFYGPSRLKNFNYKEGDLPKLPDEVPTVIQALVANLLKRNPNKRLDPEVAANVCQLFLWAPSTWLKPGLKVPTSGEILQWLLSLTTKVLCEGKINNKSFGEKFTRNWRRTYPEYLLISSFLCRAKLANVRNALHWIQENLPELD
Method: Intact protein mass spectrometry was used to monitor transphosphorylation of TcPINK1-D337N by ^15N-TcPINK1-WT, as described previously. ^15N-TcPINK1 at 5 μM was combined with 5 μM TcPINK1-D337N, 100 μM compound of interest, 1 mM ATP, 2 mM MgSO4 in 300 mM NaCl, 50 mM Tris–HCl pH 8, 2 mM DTT with 2% DMSO at 30 °C for transphosphorylation reactions with timepoints of 0 s, 30 s, 60 s, and 120 s. Timepoint reactions were stopped by addition of 0.05% TFA and 2% acetonitrile (final concentrations). Reactions in 20 μL were injected on a Dionex C4 Acclaim 1.0/15 mm column followed by a 10 min 4–50% gradient of ACN in 0.1% formic acid with a flow rate of 40 μL/min. The eluate was analyzed on a Bruker Impact II Q-TOF mass spectrometer equipped with an Apollo II ion funnel ESI source. The multiply charged ions were deconvoluted at 10,000 resolution using the maximum entropy method. The signal intensity of the nonphosphorylated and phosphorylated TcPINK1-D337N peaks were estimated using the DataAnalysis software integration tool and used to calculate the fraction phosphorylated.

[9] = test system: MLK1; conditions: cited from earlier work
[10] = target: T8, human PINK1 (PINK1-3HA) in HeLa S3 cells (Homo sapiens, UniProt Q9BXM7); experiment: HeLa S3 cells IC50 determination (pUb immunoblot after CCCP); type: cell-based; conditions: HeLa S3 PINK1-3HA, CCCP 4 h
T8 construct: expressed in transfected cells; host or cells: HeLa S3
T8 sequence (Q9BXM7 78-581): as the sequence (Q9BXM7 78-581) above

[11] = target: FMS-like tyrosine kinase 3 (FLTK3); conditions: read-out: Inhibition of FLTK3; cited from earlier work

Compound	Inhibition of Ub4 phosphorylation (kinase activity of TcPINK1) [1]	IC50 [3] [µM]	Inhibition of human PINK1 Ub4 phosphorylation in organello [4]	other results
NC(=O)c1cnc(N[C@@H]2CCCC[C@@H]2N)nc1Nc1ccccc1 (racemic) [PRT-core]	inhibit the kinase activity of TcPINK1	–	–	–
Nc1ncnc2c1ncn2[C@@H]1O[C@H](COP(=O)(O)OP(=O)(O)NP(=O)(O)O)[C@@H](O)[C@H]1O [AMP-PNP]	–	–	–	Kd [2]: 96 µM
Cc1nc(N)sc1-c1ccnc(Nc2ccc(N3CCOCC3)cc2)n1 [CYC116]	–	65.4 ± 1.1	–	–
Nc1nc(Nc2ccc(S(N)(=O)=O)cc2)nn1C(=O)c1c(F)cccc1F [JNJ-7706621]	–	27.6 ± 1.1	–	–
FC(F)(F)c1cc2c(N[C@@H]3CCCc4ccccc43)ncnc2[nH]1 [MTK458]	–	–	does not significantly affect Ub4 phosphorylation	–
Cc1cccc(Nc2nc(N[C@@H]3CCCC[C@@H]3N)ncc2C(N)=O)c1 [PRT060318]	inhibit the kinase activity of TcPINK1	2.5	most potent inhibitors of human PINK1 kinase activity	–
NC(=O)c1cnc(N[C@@H]2CCCC[C@@H]2N)nc1Nc1cccc(-n2nccn2)c1 [PRT062607]	inhibits Ub4 phosphorylation most strongly	–	most potent inhibitors of human PINK1 kinase activity	Mfn2 ubiquitination [5]: inhibition of Mfn2 ubiquitination; Potential-dependent cleavage of Opa1 to its short isoform [5]: not affected; pUb signal [5]: reduction of the pUb signal in a dose-dependent manner; IC50 [6]: 0.081 µM; Inhibition of monoubiquitin phosphorylation [7]: inhibits TcPINK1; TcPINK1 autophosphorylation [8]: inhibits TcPINK1 autophosphorylation; IC50 [9]: […]; PINK1 levels (HA blot) [10]: not substantially affected
Cn1cc(-c2nc(N[C@@H]3CCCC[C@@H]3N)c(F)c3c2C(=O)NC3)cn1 [TAK-659]	inhibit the kinase activity of TcPINK1	6.4 ± 1	–	IC50 [11]: 0.005 µM
CNCc1ccc(-c2cc(-c3nc(-c4ccc(S(=O)(=O)C(C)C)cc4)cnc3N)on2)cc1 [VE822]	–	–	does not significantly impact HsPINK1	TcPINK1 activity compared to control ([1]; Ub4 substrate): 8%
